# Measurements as given in patent US11274083B2, “Substituted thiophenyl uracils, salts thereof and the use thereof as herbicidal agents” (Syngenta Crop Protection AG, priority 2017, dated 2022).
# Assays:
# Format in all cases: in vivo
# Abutilon theophrasti = assay: Herbicidal action post-emergence, greenhouse pot test; details: application rate 20 g/ha
# Description: (§1) Seeds of mono- and dicotyledonous weed plants and crop plants were laid out in sandy loam soil in plastic or wood-fiber pots, covered with soil and grown under controlled growth conditions in a greenhouse. 2 to 3 weeks after sowing, the trial plants were treated at the one-leaf stage. The compounds of the invention formulated in the form of wettable powders (WP) or as emulsion concentrates (EC) were then sprayed onto the green parts of the plant as an aqueous suspension or emulsion with addition of 0.5% additive at a water application rate equivalent to 600 L/ha. After the trial plants had stood for about 3 weeks in the greenhouse, under optimal growth conditions, the effect of the preparations was scored visually by comparison with untreated controls. For example, 100% efficacy=plants have died, 0% efficacy=like control plants. Tables A1 to A16 below show the efficacies of selected compounds of the general formula (I) according to tables I.1 to I.50 on various harmful plants and an application rate corresponding to 80 g/ha or lower that were obtained by the aforementioned trial method.
# Amaranthus retroflexus = assay: as above; details: application rate 20 g/ha
# Description: as §1
# Veronica persica = assay: as above; details: application rate 20 g/ha
# Description: as §1
# Viola tricolor = assay: as above; details: application rate 20 g/ha
# Description: as §1
# Oryza sativa = assay: Crop compatibility post-emergence, greenhouse pot test
# Description: as §1, with “plants.” for “plants. Tables A1 to A16 below show the efficacies of selected compounds of the general formula (I) according to tables I.1 to I.50 on various harmful plants and an application rate corresponding to 80 g/ha or lower that were obtained by the aforementioned trial method.”
# (§2) Crop plant compatibilities were also scored correspondingly.
# (§3) The effects observed are reported here on selected crop plants by comparison, with the untreated controls (values in %).
# Triticum aestivum = assay: as above
# Description: as §1, with “plants.” for “plants. Tables A1 to A16 below show the efficacies of selected compounds of the general formula (I) according to tables I.1 to I.50 on various harmful plants and an application rate corresponding to 80 g/ha or lower that were obtained by the aforementioned trial method.”
# as §2, §3
# Zea mays = assay: as above
# Description: as §1, with “plants.” for “plants. Tables A1 to A16 below show the efficacies of selected compounds of the general formula (I) according to tables I.1 to I.50 on various harmful plants and an application rate corresponding to 80 g/ha or lower that were obtained by the aforementioned trial method.”
# as §2, §3
# Lolium rigidum [1] = assay: Herbicidal action pre-emergence, greenhouse pot test; details: application rate 320 g/ha
# Description: Seeds of mono- and dicotyledonous weeds and crop plants were laid out in plastic or organic plant pots and covered with soil. The compounds of the invention formulated in the form of wettable powders (WP) or as emulsion concentrates (EC) were then applied to the surface of the covering soil as an aqueous suspension or emulsion with addition of 0.5% additive at a water application rate equivalent to 600 L/ha. After the treatment, the pots were placed in a greenhouse and kept under good growth conditions for the test plants. After about 3 weeks, the efficacy of the preparations was scored visually as a percentage by comparison with untreated controls. For example, 100% efficacy=plants have died. 0% efficacy=like control plants. Tables B1 to B17 below show the efficacies of selected compounds of the general formula (I) according to tables I.1 to I.50 on various harmful plants and an application rate corresponding to 320 g/ha or lower that were obtained by the aforementioned trial method.
# Alopecurus myosuroides = assay: Herbicidal action post-emergence, greenhouse pot test; details: application rate 20 g/ha, scored visually after about 3 weeks vs untreated controls
# Description: as §1
# Echinochloa crus-galli = assay: as above; details: application rate 20 g/ha
# Description: as §1
# Matricaria inodora = assay: as above; details: application rate 20 g/ha
# Description: as §1
# Pharbitis purpurea = assay: as above
# Description: as §1
# Polygonum convolvulus = assay: as above; details: application rate 20 g/ha
# Description: as §1
# Setaria viridis = assay: as above; details: application rate 20 g/ha
# Description: as §1
# Stellaria media = assay: as above; details: application rate 20 g/ha
# Description: as §1
# Digitaria sanguinalis = assay: as above; details: application rate 20 g/ha
# Lolium rigidum [2] = assay: as above; details: application rate 20 g/ha
# Description: as §1
Structure (SMILES),Oryza sativa (Efficacy in %) (Oryza sativa; application rate 20 g/ha),Triticum aestivum (Efficacy in %) (Triticum aestivum; application rate 20 g/ha),Triticum aestivum (Efficacy in %) (Triticum aestivum; application rate 5 g/ha),Abutilon theophrasti (Efficacy in %) (Abutilon theophrasti),Amaranthus retroflexus (Efficacy in %) (Amaranthus retroflexus),Veronica persica (Efficacy in %) (Veronica persica),Viola tricolor (Efficacy in %) (Viola tricolor),Alopecurus myosuroides (Efficacy in %) (Alopecurus myosuroides),Echinochloa crus-galli (Efficacy in %) (Echinochloa crus-galli),Matricaria inodora (Efficacy in %) (Matricaria inodora),Pharbitis purpurea (Efficacy in %) (Pharbitis purpurea; application rate 20 g/ha),Polygonum convolvulus (Efficacy in %) (Polygonum convolvulus),Setaria viridis (Efficacy in %) (Setaria viridis),Stellaria media (Efficacy in %) (Stellaria media),Digitaria sanguinalis (Efficacy in %) (Digitaria sanguinalis),further results
CC(Sc1cc(-n2c(=O)cc(C(F)(F)F)n(C)c2=O)c(F)cc1Cl)C(=O)OCCC(=O)OCC1CC1 (stereo not shown) [I.1-7],–,–,–,–,–,–,–,–,–,–,–,–,–,–,–,Lolium rigidum (Efficacy in %) (Lolium rigidum [1]): 90%
CCNC(=O)CCOC(=O)C(C)Sc1cc(-n2c(=O)cc(C(F)(F)F)n(C)c2=O)c(F)cc1Cl (stereo not shown) [I.1-153],–,–,–,100%,100%,100%,100%,90%,100%,100%,100%,100%,100%,100%,100%,Lolium rigidum (Efficacy in %) (Lolium rigidum [2]): 80%; Oryza sativa (Efficacy in %) (Oryza sativa; application rate 5 g/ha): 10%
CCN(C)C(=O)CCOC(=O)C(C)Sc1cc(-n2c(=O)cc(C(F)(F)F)n(C)c2=O)c(F)cc1Cl (stereo not shown) [I.1-233],20%,–,–,100%,100%,100%,100%,90%,100%,100%,100%,100%,100%,100%,100%,Lolium rigidum (Efficacy in %) (Lolium rigidum [2]): 90%
CCCOC(=O)CCOC(=O)C(CC)Sc1cc(-n2c(=O)cc(C(F)(F)F)n(C)c2=O)c(F)cc1Cl (stereo not shown) [I.2-8],0%,0%,–,100%,100%,100%,100%,–,100%,100%,100%,100%,100%,100%,100%,Zea mays (Efficacy in %) (Zea mays; application rate 20 g/ha): 0%
CCC(Sc1cc(-n2c(=O)cc(C(F)(F)F)n(C)c2=O)c(F)cc1Cl)C(=O)OCC(C)(C)C(=O)OC (stereo not shown) [I.2-32],0%,–,20%,100%,100%,100%,100%,80%,100%,100%,100%,100%,100%,–,100%,Lolium rigidum (Efficacy in %) (Lolium rigidum [2]): 80%; Zea mays (Efficacy in %) (Zea mays; application rate 5 g/ha): 20%
CCOC(=O)CCOC(=O)C(Sc1cc(-n2c(=O)cc(C(F)(F)F)n(C)c2=O)c(F)cc1Cl)C(C)CC (stereo not shown) [I.5-3],–,–,20%,100%,100%,100%,100%,80%,100%,100%,100%,100%,100%,100%,80%,–
CCCCC(Sc1cc(-n2c(=O)cc(C(F)(F)F)n(C)c2=O)c(F)cc1Cl)C(=O)OCCC(=O)OCC (stereo not shown) [I.47-3],20%,20%,–,100%,100%,100%,100%,–,80%,100%,100%,100%,100%,–,100%,–

# More lines, main results first:
Oryza sativa (Efficacy in %) (Oryza sativa; application rate 20 g/ha),Triticum aestivum (Efficacy in %) (Triticum aestivum; application rate 20 g/ha),Triticum aestivum (Efficacy in %) (Triticum aestivum; application rate 5 g/ha),Structure (SMILES),Abutilon theophrasti (Efficacy in %) (Abutilon theophrasti),Amaranthus retroflexus (Efficacy in %) (Amaranthus retroflexus),Veronica persica (Efficacy in %) (Veronica persica),Viola tricolor (Efficacy in %) (Viola tricolor),Alopecurus myosuroides (Efficacy in %) (Alopecurus myosuroides),Echinochloa crus-galli (Efficacy in %) (Echinochloa crus-galli),Matricaria inodora (Efficacy in %) (Matricaria inodora),Pharbitis purpurea (Efficacy in %) (Pharbitis purpurea; application rate 20 g/ha),Polygonum convolvulus (Efficacy in %) (Polygonum convolvulus),Setaria viridis (Efficacy in %) (Setaria viridis),Stellaria media (Efficacy in %) (Stellaria media),Digitaria sanguinalis (Efficacy in %) (Digitaria sanguinalis),further results
0%,0%,–,CC(Sc1cc(-n2c(=O)cc(C(F)(F)F)n(C)c2=O)c(F)cc1Cl)C(=O)OCCC(=O)OCc1ccccc1 (stereo not shown) [I.1-6],100%,100%,100%,100%,–,–,–,–,–,–,–,–,Zea mays (Efficacy in %) (Zea mays; application rate 20 g/ha): 10%
–,–,10%,CCOC(=O)COC(=O)C(C)Sc1cc(-n2c(=O)cc(C(F)(F)F)n(C)c2=O)c(F)cc1Cl (stereo not shown) [I.1-43],100%,100%,100%,100%,80%,100%,100%,100%,100%,100%,80%,100%,–
–,–,20%,CC(Sc1cc(-n2c(=O)cc(C(F)(F)F)n(C)c2=O)c(F)cc1Cl)C(=O)OCCC(=O)N(C)C (stereo not shown) [I.1-231],100%,100%,100%,100%,–,100%,100%,100%,100%,100%,100%,100%,Oryza sativa (Efficacy in %) (Oryza sativa; application rate 5 g/ha): 10%; Zea mays (Efficacy in %) (Zea mays; application rate 5 g/ha): 20%
–,–,20%,CCC(C)C(Sc1cc(-n2c(=O)cc(C(F)(F)F)n(C)c2=O)c(F)cc1Cl)C(=O)OCCC(=O)OC (stereo not shown) [I.5-2],100%,100%,100%,100%,80%,100%,100%,100%,100%,100%,100%,80%,–
0%,20%,–,CCOC(=O)CCOC(=O)C(CC)Sc1cc(-n2c(=O)c(C)c(C(F)(F)F)n(C)c2=O)c(F)cc1Cl (stereo not shown) [I.12-3],100%,100%,100%,100%,–,100%,–,–,100%,100%,100%,100%,Pharbitis purpurea (Efficacy in %) (Pharbitis purpurea; application rate 5 g/ha): 100%
